Among the data in patent publication US20240262803A1, “COMPOUNDS, COMPOSITIONS AND METHODS OF TREATING DISORDERS” (Chungdu Anticancer Bioscience Ltd, priority 2021, published 2024) are EC50 and minimal effective concentration values, retold here.

What all share (assay type): cell-based
For test [1], the system named is lung cancer cell line NCI-H23. The test is described as follows: MTT assay of cellular proliferation, NCI-H23. Particulars: Homo sapiens, read-out: EC50: Concentration that inhibits 50% of proliferation. As for the experimental part:
(§1) Six lung cancer cell lines (NCI-H23, NCI-H460, NCI-H596, NCI-H2170, Calu-6 and A549), two colon cancer cell lines (HCT116 and SW460), one breast cancer cell line MDA-MB-231, one gastric cancer cell line NCI-N87, one prostate cancer cell line DU145, one cervical cancer cell line Hela, and one glioblastoma cell line T98G were obtained from ATCC. The T2 HCC cell line was derived from a mouse liver cancer model initiated by a transgene of MYC (Reference). All cell lines were cultured in DMEM (Gibco, Cleveland, TN, USA) supplemented with 5% fetal bovine serum (Gibco), penicillin (100 U/mL)-streptomycin (100 μg/mL) (Gibco, Cat. No. 15140-122), 2 mM L-glutamine (Gibco, 200 mM solution, Cat. No. 25030081), and 1 mM sodium pyruvate (Gibco, 100 mM solution, Cat. No. 11360070) at 37° C. in a humidified incubator that was maintained at 5% CO2.
(§2) The MTT assay measures cellular metabolic activity as a proxy for cell viability and involves the conversion of the water-soluble yellow dye MTT [3-(4,5-dimethylthiazol-2-yl)-2,5-diphenyltetrazolium bromide] into an insoluble purple formazan by the action of mitochondrial reductase. Formazan is then solubilized and its concentration is determined by measuring the optical density (OD) value at a wavelength of 570 nm. The value is in proportional to the number of live cells with excellent linearity up to ˜10^6 cells per well. The MTT assay was used to determine the EC50 value, the concentration of a compound that leads to 50% inhibition of cellular proliferation. Briefly, cells were split when growing to the mid-Log phase. Cells in 100 μL of culture medium were seeded into each well of 96-well microplates and cultivated for 15˜24 hours to reach a confluence of 20˜30% and were then exposed to drugs at concentrations ranging from 1 nM to 10 μM. At the endpoint, 20 μL of a MTT stock solution in DMSO (5 mg/mL) was added to each well that contains […] of DMEM. The microplates were left in the cell culture incubator for 3˜4 h before subjected to solubilization and determination of formazan at A570 in a microplate reader (BioTek ELX808iu). […] Therefore, these compounds might hold a broad utility in the treatment of a large variety of human malignancies.

Test [2] has as its system SW480. Kind of test: Minimal effective concentration that elicits polyploidy, SW480. The following applies: Homo sapiens, read-out: MECP: Minimal effective concentration that elicits polyploidy.
Test [3] has as its system colon cancer cell line HCT116. The test is described as follows: Minimal effective concentration that elicits polyploidy, HCT116. Particulars: Homo sapiens, HCT-116, read-out: MECP: Minimal effective concentration that elicits polyploidy.
Test [4] concerns lung cancer cell line A549. Kind of test: MTT assay of cellular proliferation, A549. The following applies: Homo sapiens, read-out: EC50: Concentration that inhibits 50% of proliferation. As for the experimental part:
as §1, §2

Test [5] concerns lung cancer cell line A549. The test is described as follows: Minimal effective concentration that elicits polyploidy, A549. Particulars: Homo sapiens, read-out: MECP: Minimal effective concentration that elicits polyploidy.
Test [6] has as its system liver cancer cell line T2 HCC. The test is described as follows: Minimal effective concentration that elicits polyploidy, T2 HCC. Particulars: Mus musculus, read-out: MECP: Minimal effective concentration that elicits polyploidy.
Test [7] concerns breast cancer cell line MDA-MB-231. Kind of test: Minimal effective concentration that elicits polyploidy, MDA-MB-231. The following applies: Homo sapiens, read-out: MECP: Minimal effective concentration that elicits polyploidy.
The test system of test [8] is cervical cancer cell line Hela. The test is described as follows: Minimal effective concentration that elicits polyploidy, Hela. Particulars: Homo sapiens, read-out: MECP: Minimal effective concentration that elicits polyploidy.
The test system of test [9] is cervical cancer cell line Hela. The test is described as follows: MTT assay of cellular proliferation, Hela. The following applies: Homo sapiens, read-out: EC50: Concentration that inhibits 50% of proliferation. As for the experimental part: as §1, §2
Test [10] concerns RPEMYC^H2B-GFP cells. Kind of test: Mechanism-informed phenotypic screening assay (mitotic arrest, polyploidy; GE IN-Cell Analyzer 2000). Particulars: 20 nM to 20 μM, 24, 48 or 72 hours, read-out: Mitotic Arrest (≥5%).
Test [11] has as its system liver cancer cell line T2 HCC. Kind of test: MTT assay of cellular proliferation, T2 HCC. Particulars: Mus musculus, read-out: EC50: Concentration that inhibits 50% of proliferation. As for the experimental part: as §1, §2
Test [12] concerns gastric cancer cell line NCI-N87. The test is described as follows: Minimal effective concentration that elicits polyploidy, NCI-N87. The following applies: Homo sapiens, read-out: MECP: Minimal effective concentration that elicits polyploidy.
The subject of test [13] is colon cancer cell line SW460. Kind of test: MTT assay of cellular proliferation, SW460. Particulars: Homo sapiens, SW480; read-out: EC50: Concentration that inhibits 50% of proliferation. As for the experimental part: as §1, §2
The test system of test [14] is gastric cancer cell line NCI-N87. The test is described as follows: MTT assay of cellular proliferation, NCI-N87. The following applies: Homo sapiens, read-out: EC50: Concentration that inhibits 50% of proliferation. As for the experimental part:
as §1, §2

Test [15] deals with colon cancer cell line HCT116. Kind of test: MTT assay of cellular proliferation, HCT116. Particulars: Homo sapiens, HCT-116, read-out: EC50: Concentration that inhibits 50% of proliferation. As for the experimental part: as §1, §2
The subject of test [16] is breast cancer cell line MDA-MB-231. Kind of test: MTT assay of cellular proliferation, MDA-MB-231. Particulars: Homo sapiens, read-out: EC50: Concentration that inhibits 50% of proliferation. As for the experimental part:
as §1, §2

For test [17], the system named is lung cancer cell line NCI-H23. Kind of test: Minimal effective concentration that elicits polyploidy, NCI-H23. Particulars: Homo sapiens, read-out: MECP: Minimal effective concentration that elicits polyploidy.
Test [18] relates to RPEMYC^H2B-GFP cells. Kind of test: Mechanism-informed phenotypic screening assay (mitotic arrest, polyploidy; GE IN-Cell Analyzer 2000). Particulars: 20 nM to 20 μM, 24, 48 or 72 hours, read-out: Min. Effective conc. for polyploidy (≥5%). The procedure: We have Previously Developed a Mechanism-Informed Phenotypic Screening Assay to identify novel antimitotic agents (Li et al. 2019). Equipped with a prior understanding of the versatile functions of the chromosomal passenger protein (CPP) complex in orchestrating karyokinesis and cytokinesis, the screening assay is to score for phenotypes typically seen when the CPP complex is disabled. Specifically, the parameters for a positive hit are a temporary elevation of mitotic index (MI) at 24 hours of drug treatment and an accumulation of polyploid cells at 48 hours of drug treatment, indicative of mitotic arrest and cytokinetic failure respectively. These parameters exclude compounds that elicit only a prolonged arrest of cells in mitosis, a phenotype typically provoked by spindle toxins. The screening procedure is briefly summarized here. RPEMYC^H2B-GFP cells engineered to express a Histone 2B-EGFP fusion protein were passaged as batches of 96-well plates, 18-24 hours before exposure to the chemical compounds of the present disclosure at concentrations from 20 nM to 20 μM. At 24, 48 or 72 hours after initiation of treatment, cells were analyzed for either an arrest in mitosis or a change in DNA content by GE IN-Cell Analyzer 2000. As set forth in table 2 below, a value of greater than or equal to […] and less than or equal to 1.0 μM is marked e “A”; a value greater than […] and less than or equal to 10.0 μM is marked “B”; a value greater than 10.0 μM and less than or equal to 30.0 μM is marked “C”; and a value greater than 30.0 μM is marked “D.”

pEC50: −log10 of the molar value. Read-outs that look alike come from different tables or passages of the source.

Consider `COc1cc(Oc2ncccc2-c2ccnc(OC)c2)cc(C(F)(F)F)c1` [Compound 30, 2′-methoxy-2-(3-methoxy-5-(trifluoromethyl)phenoxy)-3,4′-bipyridine], for which the pEC50 in [1], in test [4], in [9], in [11], in [13] and in [14] was 6.00 to 9.00 each time. For the same compound, the pEC50 in [15] and in test [16] was 6.00 to 9.00 each time. The minimal effective concentration in test [2], in test [3], in test [5], in [6], in test [7] and in [8] was 0.001 to 1 µM throughout. For the same compound, the minimal effective concentration was 1 µM in test [10], 0.001 to 1 µM in test [12], 0.001 to 1 µM in test [17] and 1 µM in test [18].

On to `CCOc1cc(Oc2ncccc2-c2ccnc(C)c2)cc(C(=O)NC)c1` [Compound 38, 3-ethoxy-N-methyl-5-((2′-methyl-[3,4′-bipyridin]-2-yl)oxy)benzamide], for which the pEC50 in [1], in test [4], in [9], in [11], in test [13] and in [14] was 6.00 to 9.00 in each case. Also, the pEC50 in [15] and in test [16] was 6.00 to 9.00 each time. Also, the minimal effective concentration in test [2], in test [3], in [5], in test [6], in test [7] and in [8] was 0.001 to 1 µM each time. Moreover, the minimal effective concentration is 1 µM in test [10], 0.001 to 1 µM in [12], 0.001 to 1 µM in test [17] and 1 µM in [18].

`CNC(=O)c1cc(OC)cc(Oc2ncccc2-c2ccnc(Cl)c2)c1` [Compound 45, 3-((2′-chloro-[3,4′-bipyridin]-2-yl)oxy)-5-methoxy-N-methylbenzamide]: the pEC50 in [1], in test [4], in [9], in test [11], in test [13] and in test [14] was 6.00 to 9.00 each time. The pEC50 in test [15] and in test [16] was 6.00 to 9.00 each time. Moreover, the minimal effective concentration in test [2], in test [3], in test [5], in test [6], in [7] and in [8] was 0.001 to 1 µM throughout. In addition, the minimal effective concentration is 1 µM in test [10], 0.001 to 1 µM in test [12], 0.001 to 1 µM in [17] and 1 µM in [18].

Consider `COc1cc(OC)cc(Oc2ncccc2-c2ccnc(C)c2)c1` [Compound 42, 2-(3,5-dimethoxyphenoxy)-2′-methyl-3,4′-bipyridine], for which the pEC50 in test [1], in test [4], in test [9], in [11], in test [13] and in test [14] was 6.00 to 9.00 throughout. Also, the pEC50 in [15] and in [16] was 6.00 to 9.00 each time. Besides, the minimal effective concentration in test [2], in test [3], in test [5], in test [6], in test [7] and in [8] was 0.001 to 1 µM each time. Also, the minimal effective concentration is 1 µM in [10], 0.001 to 1 µM in test [12], 0.001 to 1 µM in test [17] and 1 µM in [18].

Consider `COc1cc(NC(C)=O)cc(Oc2ncccc2-c2ccnc(OC)c2)c1` [Compound 34], for which the pEC50 in [1], in [4], in [9], in [11], in test [13] and in test [14] was 6.00 to 9.00 throughout. In addition, the pEC50 in [15] and in [16] was 6.00 to 9.00 in each case. Besides, the minimal effective concentration in test [2], in test [3], in [5], in [6], in test [7] and in [8] was 0.001 to 1 µM in each case. Further, the minimal effective concentration in test [10] is 1 µM; in test [12], 0.001 to 1 µM; in [17], 0.001 to 1 µM; in test [18], 1 µM.

Turning to `COc1cc(OC)cc(Oc2ncccc2-c2ccncc2)c1` [Compound 14, 2-(3,5-dimethoxyphenoxy)-3,4′-bipyridine], the pEC50 in test [1], in [4], in [9], in test [11], in test [13] and in test [14] was 6.00 to 9.00 each time. For the same compound, the pEC50 in [15] and in test [16] was 6.00 to 9.00 throughout. Also, the minimal effective concentration in [2], in test [3], in [5], in test [6], in test [7] and in [8] was 0.001 to 1 µM in each case. Further, the minimal effective concentration in [10] is 1 µM; in [12], 0.001 to 1 µM; in [17], 0.001 to 1 µM; in test [18] it was 1 µM.
